37 compounds from the OPERA property sets (Mansouri et al. 2018) can be followed below.

The structures appear in SMILES notation.

Conditions in one data set: not given
`CC[C@H]1CC[C@H]2[C@@H]3CC[C@@H]4CCCC[C@]4(C)[C@H]3CC[C@]12C`: the melting point is 84 °C. `Ic1cccc(I)c1` returned a boiling point of 285 °C and a melting point of 40.4 °C.

Compound `FC(F)(F)C(F)(F)C(F)(F)C(F)(F)C(F)(F)C(F)(F)C(F)(F)C(F)(F)Br` registered a boiling point of 141 °C. Turning to `Oc1ccc(Nc2ccccc2)cc1`, the boiling point stood at 330 °C and the melting point is 73 °C. As for `NCCCCCC(=O)O`, the melting point was determined as 205 °C.

Consider `CCOP(=S)(Oc1ccc([N+](=O)[O-])cc1)c1ccccc1` (stereo not drawn), for which the log10 Koc (L/kg) worked out at 3.12, the log10 vapour pressure (mmHg) was -6.02, the melting point came to 36 °C and the ready biodegradability result was “not readily biodegradable”. For the compound `CC(C)(C)C1CCCCC1`, the boiling point was 172 °C, the log10 vapour pressure (mmHg) is 0.368 and the melting point was -41.2 °C. With `CC/C=C/C=C/C=O`, the melting point is 84.5 °C. `CCOC(=O)C(Br)C(C)Br` (stereo not drawn) gave a melting point of 58.5 °C. As to `CN(C)c1ccccc1`, the boiling point stood at 193 °C, the log10 Koc (L/kg) was 2.26, the log10 vapour pressure (mmHg) was -0.155 and the melting point was 2.5 °C. In addition, the ready biodegradability result is recorded as “not readily biodegradable”. On to `Nc1ccc(F)cc1`, for which the boiling point turned out to be 182 °C and the melting point is -0.8 °C. For the compound `OCCNCO`, the ready biodegradability result is listed as “readily biodegradable”. For the compound `CCCSP(=S)(OCC)Oc1ccc(SC)cc1` (stereo not drawn), the log10 Koc (L/kg) amounted to 4.08, the log10 vapour pressure (mmHg) was -5.92 and the melting point was -15 °C. The compound `Cc1cc(C(=O)NCCc2ccc(S(=O)(=O)NC(=O)NN3CCCCCC3)cc2)no1` yielded a melting point of 189 °C.

Compound `CCOP(=S)(OCC)Oc1ccc2c3c(c(=O)oc2c1)CCCC3` yielded a melting point of 88.2 °C. `c1cc2c(cn1)CCCC2` displayed a boiling point of 218 °C and a melting point of 146 °C. `FC(F)(F)C(F)(F)C(F)(F)C(F)(F)C(F)(F)C(F)(F)C(F)(F)C(F)(F)C(F)(F)C(F)(F)I` returned a boiling point of 195 °C and a melting point of 66 °C. The like results for `CSB(C)C` were, in that order, 71 °C and -84 °C. With `Fc1ccccc1C1=NCC(=S)N(CC(F)(F)F)c2ccc(Cl)cc21`, the melting point is 138 °C. Compound `Nc1cc([N+](=O)[O-])ccc1Cl` returned a melting point of 121 °C. In turn, `CN(C)[C@@H]1C(O)=C(C(N)=O)C(=O)[C@@]2(O)C(O)=C3C(=O)c4c(O)ccc(Cl)c4[C@@](C)(O)[C@H]3C[C@@H]12` displayed a melting point of 168 °C. Turning to `CCc1nn(C)c(C(=O)NCc2ccc(C(C)(C)C)cc2)c1Cl`, the melting point came out at 61.5 °C.

On to `CCOC(=O)CCC(C)CC` (stereo not drawn), for which the boiling point turned out to be 180 °C. `COP1(=S)OCc2ccccc2O1` (stereo not drawn): the ready biodegradability result is reported as “not readily biodegradable”. `CCOC(=O)COC(=O)c1ccccc1C(=O)OCC` had a log10 Koc (L/kg) of 2.54. For the compound `c1ccc2c(c1)ccc1c3ccc4ccccc4c3[nH]c21`, the log10 Koc (L/kg) was 6.02. In the case of `Cc1ccc(O)c(-n2n3c4ccccc4n23)c1`, the ready biodegradability entry was “not readily biodegradable”.

`c1cn[nH]n1` came in with a boiling point of 204 °C and a melting point of 23 °C. Compound `C[N+]1(C)CCCCC1.[Cl-]` showed a melting point of 223 °C.

For the compound `ClC1(Cl)CCCCC1`, the boiling point is 171 °C and the melting point is -47 °C. Compound `C#CC=O` yielded a boiling point of 60 °C. For the compound `c1ccc(CCCCc2ccccc2)cc1`, the boiling point came to 317 °C and the melting point is 52.5 °C. Take `CCC1(CC)C(=O)NC(=O)N(C)C1=O`: the melting point is 150 °C. On the same count and under the same terms, for `CC(Cl)(Cl)C(=O)[O-].[Na+]` the value was 166 °C; for `O=P(O)(O)OCC(O)CO` (stereo not drawn), -25 °C. For the compound `CC(=O)OCCN(CCOC(C)=O)c1ccc(N=Nc2nc3ccc(Cl)cc3s2)c(NC(=O)c2ccccc2)c1`, the ready biodegradability entry is recorded as “not readily biodegradable”. Turning to `CCCCCCCCCCCCCCCCC(CCC)c1ccccc1` (stereo not drawn), the melting point amounted to 31.4 °C.

The data set is the same for the next values; noted with them: fish.
`CCOP(=S)(Oc1ccc([N+](=O)[O-])cc1)c1ccccc1` (stereo not drawn) displayed a log10 BCF of 2.97. As for `CN(C)c1ccccc1`, the log10 BCF was 0.9 and the log10 biotransformation half-life (days) was -0.96. With `CCc1nn(C)c(C(=O)NCc2ccc(C(C)(C)C)cc2)c1Cl`, the log10 BCF amounted to 1.15.

Regarding `COP1(=S)OCc2ccccc2O1` (stereo not drawn), the log10 BCF was found to be 1.31 and the log10 biotransformation half-life (days) was -1.15.

Usually melting point stands for the temperature, or range, at which the solid turns liquid. Usually boiling point stands for the temperature of boiling at a given pressure.
